Experimental data: paper PMC4018390, “Important Role of CYP2J2 in Protein Kinase Inhibitor Degradation: A Possible Role in Intratumor Drug Disposition and Resistance” (PLoS ONE, 2014)
Where two headings read alike, the source gives them in different places.

Tests used:
CYP1A1 [1] = molecular target: T1, CYP1A1 (Homo sapiens, UniProt P04798); design: purchased BD Bioscience (Belgium), BD Gentest; host or cells: insect cells; method as in earlier work; conditions: compared with CYP1B1 and 3A4, ref 22 (Kamath et al.); cited from earlier work
T1 sequence (P04798 1-512): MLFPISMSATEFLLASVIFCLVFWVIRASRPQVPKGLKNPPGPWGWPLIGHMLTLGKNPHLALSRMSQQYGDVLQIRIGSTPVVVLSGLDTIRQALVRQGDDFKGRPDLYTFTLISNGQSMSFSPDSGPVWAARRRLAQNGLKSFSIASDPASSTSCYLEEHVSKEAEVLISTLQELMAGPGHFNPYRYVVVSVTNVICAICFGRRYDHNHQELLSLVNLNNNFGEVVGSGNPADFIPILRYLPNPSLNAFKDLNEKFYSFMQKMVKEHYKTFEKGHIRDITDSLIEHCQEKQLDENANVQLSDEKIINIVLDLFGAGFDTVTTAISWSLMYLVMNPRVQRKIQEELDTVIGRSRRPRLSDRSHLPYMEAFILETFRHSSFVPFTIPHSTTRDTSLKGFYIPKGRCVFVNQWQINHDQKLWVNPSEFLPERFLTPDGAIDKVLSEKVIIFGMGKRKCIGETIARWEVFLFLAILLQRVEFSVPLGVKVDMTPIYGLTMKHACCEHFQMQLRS

CYP1B1 [2] = molecular target: T2, CYP1B1 (Homo sapiens, UniProt Q16678); design: purchased BD Bioscience (Belgium), BD Gentest; host or cells: insect cells; method as in earlier work; conditions: compared with CYP1A1 and 3A4, ref 22 (Kamath et al.); cited from earlier work
T2 sequence (Q16678 1-543): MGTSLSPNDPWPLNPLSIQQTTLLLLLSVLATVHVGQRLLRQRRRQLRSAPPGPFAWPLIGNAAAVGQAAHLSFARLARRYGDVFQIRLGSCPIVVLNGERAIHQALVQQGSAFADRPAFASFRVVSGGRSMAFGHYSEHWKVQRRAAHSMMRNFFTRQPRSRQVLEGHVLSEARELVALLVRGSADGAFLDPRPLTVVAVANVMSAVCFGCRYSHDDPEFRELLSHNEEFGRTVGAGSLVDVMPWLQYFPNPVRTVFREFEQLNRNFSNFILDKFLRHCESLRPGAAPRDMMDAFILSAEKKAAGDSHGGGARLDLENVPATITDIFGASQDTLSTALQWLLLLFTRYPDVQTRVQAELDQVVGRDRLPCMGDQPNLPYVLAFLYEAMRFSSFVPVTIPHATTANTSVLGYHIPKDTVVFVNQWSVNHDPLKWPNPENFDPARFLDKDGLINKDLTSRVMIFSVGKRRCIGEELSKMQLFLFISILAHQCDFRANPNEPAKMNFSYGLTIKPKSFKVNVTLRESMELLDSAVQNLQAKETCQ

CYP1B1 [3] = molecular target: T2, CYP1B1; assay: TKI disappearance in microsomal incubations with cDNA expressed CYP1B1; format: in vitro ADME; design: purchased BD Bioscience (Belgium), BD Gentest; host or cells: insect cells; conditions: TKI 2.5 µM at T = 0, first 10 minutes, 20 picomoles of CYP
Description: (§1) The disappearance rate was calculated after 10 min (see Table 1 ) taking into account the percent of TKI removed from the incubation (0.25 nmole of TKI and 20 pmoles of CYP in 100 µL) and are expressed in (nmole of degraded TKI/(nanomole of CYP×min)).
(§2) Protein pellets were discarded.

CYP2J2 [4] = molecular target: T3, CYP2J2 (Homo sapiens, UniProt P51589); assay: TKI disappearance in culture media of HepG2 cells infected with adenovirus expressing CYP2J2; conditions: up to 72 hours, result in words
T3 sequence (P51589 1-502): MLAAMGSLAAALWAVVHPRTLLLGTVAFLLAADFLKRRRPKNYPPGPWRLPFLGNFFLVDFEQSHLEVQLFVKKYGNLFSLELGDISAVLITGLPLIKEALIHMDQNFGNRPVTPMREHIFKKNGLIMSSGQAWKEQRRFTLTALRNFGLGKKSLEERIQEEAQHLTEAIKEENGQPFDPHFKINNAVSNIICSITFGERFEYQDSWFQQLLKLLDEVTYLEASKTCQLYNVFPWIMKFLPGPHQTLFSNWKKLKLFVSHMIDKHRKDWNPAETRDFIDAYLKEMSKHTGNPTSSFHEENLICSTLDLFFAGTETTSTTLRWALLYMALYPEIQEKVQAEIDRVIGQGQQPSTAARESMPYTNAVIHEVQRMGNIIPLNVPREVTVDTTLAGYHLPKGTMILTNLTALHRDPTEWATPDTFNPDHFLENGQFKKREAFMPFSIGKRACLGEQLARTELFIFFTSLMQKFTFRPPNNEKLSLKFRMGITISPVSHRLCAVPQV
Source text: as §2

CYP1B1 [5] = molecular target: T2, CYP1B1; assay: TKI disappearance in culture media of HepG2 cells infected with adenovirus expressing CYP1B1; conditions: up to 72 hours, result in words
CYP1A1 [6] = molecular target: T1, CYP1A1; conditions: HepG2 cells infected with CYP1A1 adenovirus; up to 72 hours; result in words
Source text: as §2

CYP3A4 [7] = molecular target: T4, CYP3A4 (Homo sapiens, UniProt P08684); design: purchased BD Bioscience (Belgium), BD Gentest; host or cells: insect cells; method as in earlier work; conditions: compared with CYP1A1 and 1B1, ref 22 (Kamath et al.); cited from earlier work
T4 sequence (P08684 whole entry): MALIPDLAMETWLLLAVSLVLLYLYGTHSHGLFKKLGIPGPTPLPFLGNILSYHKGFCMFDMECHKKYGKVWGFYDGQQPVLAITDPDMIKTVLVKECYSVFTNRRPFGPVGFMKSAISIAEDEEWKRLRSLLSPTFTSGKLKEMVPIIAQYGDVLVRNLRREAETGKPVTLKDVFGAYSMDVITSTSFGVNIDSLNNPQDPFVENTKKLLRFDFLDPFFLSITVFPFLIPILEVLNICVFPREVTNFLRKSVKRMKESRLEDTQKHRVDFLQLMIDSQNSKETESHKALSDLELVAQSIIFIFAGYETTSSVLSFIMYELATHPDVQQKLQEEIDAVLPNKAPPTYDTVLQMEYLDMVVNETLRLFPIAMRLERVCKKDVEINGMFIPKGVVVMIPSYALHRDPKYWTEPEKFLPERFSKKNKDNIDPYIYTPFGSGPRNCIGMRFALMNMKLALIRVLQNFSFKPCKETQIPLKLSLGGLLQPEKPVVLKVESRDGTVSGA

CYP2J2 [8] = molecular target: T3, CYP2J2; conditions: 2.5 µM, pH 7.4; for Disappearance rate in microsomal incubations: 10 min; for TKI levels removed from incubations: 30 min
Description: as §1, §2

CYP3A4 [9] = molecular target: T4, CYP3A4; conditions: 2.5 µM, pH 7.4; for Disappearance rate in microsomal incubations: 10 min; for TKI levels removed from incubations: 30 min
Description: as §1, §2

CYP1A1 [10] = molecular target: T1, CYP1A1; assay: TKI disappearance in microsomal incubations with cDNA expressed CYP1A1; format: in vitro ADME; design: purchased BD Bioscience (Belgium), BD Gentest; host or cells: insect cells
Description: as §1, §2

CYP1A1 [11] = molecular target: T1, CYP1A1; assay: Michaelis-Menten kinetics of TKI metabolite production, cDNA expressed CYP1A1 microsomes; conditions: for Relative Intrinsic Clearance: Vmax/Km for production of the labelled metabolite, as fold difference of the intrinsic clearance of CYP3A4; for Km: read-out: Affinity Constant, Km, Km of the parent TKI for production of the labelled metabolite, 10 pmoles CYP, TKI 0.5-20 µM, 15 min
CYP1B1 [12] = molecular target: T2, CYP1B1; assay: Michaelis-Menten kinetics of TKI metabolite production, cDNA expressed CYP1B1 microsomes; conditions: for Relative Intrinsic Clearance: Vmax/Km for production of the labelled metabolite, as fold difference of the intrinsic clearance of CYP3A4; for Km: read-out: Affinity Constant, Km, Km of the parent TKI for production of the labelled metabolite, 10 pmoles CYP, TKI 0.5-20 µM, 15 min
CYP1A1 [13] = molecular target: T1, CYP1A1; conditions: read-out: Affinity Constant, Km, Km of the parent TKI (imatinib) for production of the labelled metabolite, values marked (*), previous published study ref 18; cited from earlier work
CYP2J2 [14] = conditions: approved drugs identified as CYP2J2 inhibitors; cited from earlier work
CYP3A4 [15] = molecular target: T4, CYP3A4; assay: Michaelis-Menten kinetics of TKI metabolite production, cDNA expressed CYP3A4 microsomes; conditions: for Km: read-out: Affinity Constant, Km, CYP3A4, Km of the parent TKI for production of the labelled metabolite, 10 pmoles CYP, TKI 0.5-20 µM, 15 min
CYP2J2 [16] = molecular target: T3, CYP2J2; assay: Michaelis-Menten kinetics of TKI metabolite production, cDNA expressed CYP2J2 microsomes; conditions: for Km: read-out: Affinity Constant, Km, Km of the parent TKI for production of the labelled metabolite, 10 pmoles CYP, TKI 0.5-20 µM, 15 min
[17] = CYP1A1, TKI 2.5 µM at T = 0, first 10 minutes, 20 picomoles of CYP

Cc1nc(Nc2ncc(C(=O)Nc3c(C)cccc3Cl)s2)cc(N2CCN(CCO)CC2)n1 [Dasatinib, dasatinib]
Degradation in similar microsomal incubations (CYP1A1 [1]): comparable rate of disappearance
Degradation in similar microsomal incubations (CYP1B1 [2]): comparable rate of disappearance
Disappearance rate in microsomal incubations (CYP1B1 [3]): 1.0 nmoles of TKI degraded/(min×nmole of CYP)
TKI removal from HepG2 cell culture media (CYP2J2 [4]): CYP2J2>CYP1A1>CYP1B1
TKI removal from HepG2 cell culture media (CYP1B1 [5]): CYP2J2>CYP1A1>CYP1B1
TKI removal from HepG2 cell culture media (CYP1A1 [6]): CYP2J2>CYP1A1>CYP1B1
Degradation in similar microsomal incubations (CYP3A4 [7]): comparable rate of disappearance
Disappearance rate in microsomal incubations (CYP2J2 [8]): 1.1 nmoles of TKI degraded/(min×nmole of CYP)
TKI levels removed from incubations (CYP2J2 [8]): more than 60%
Disappearance rate in microsomal incubations (CYP3A4 [9]): 1.2 nmoles of TKI degraded/(min×nmole of CYP)
TKI levels removed from incubations (CYP3A4 [9]): more than 60%
Disappearance rate in microsomal incubations (CYP1A1 [10]; [17]): 0.9 nmoles of TKI degraded/(min×nmole of CYP)

CCNCCNC(=O)c1c(C)[nH]c(/C=C2\C(=O)Nc3ccc(F)cc32)c1C [E-deethyl-sunitinib #1, E-deethyl-sunitinib]
Relative Intrinsic Clearance (CYP1A1 [11]): 0.1 fold diff.
Km (CYP1A1 [11]): 6.9 µM
Relative Intrinsic Clearance (CYP1B1 [12]): 0.1 fold diff.
Km (CYP1B1 [12]): 2.7 µM

Cc1ccc(NC(=O)c2ccc(CN3CCNCC3)cc2)cc1Nc1nccc(-c2cccnc2)n1 [N-demethyl-imatinib]
Km (CYP1A1 [13]): 7.6 µM

Cc1cn(-c2cc(NC(=O)c3ccc(C)c(Nc4nccc(-c5cccnc5)n4)c3)cc(C(F)(F)F)c2)cn1 [Nilotinib, nilotinib]
Disappearance rate in microsomal incubations (CYP1B1 [3]): 0.3 nmoles of TKI degraded/(min×nmole of CYP)
TKI removal from HepG2 cell culture media (CYP2J2 [4]): mainly removed by CYP2J2
TKI removal from HepG2 cell culture media (CYP1B1 [5]): very slowly by CYP1B1
Disappearance rate in microsomal incubations (CYP2J2 [8]): 0.7 nmoles of TKI degraded/(min×nmole of CYP)
TKI levels removed from incubations (CYP2J2 [8]): more than 60%
Disappearance rate in microsomal incubations (CYP3A4 [9]): 1.2 nmoles of TKI degraded/(min×nmole of CYP)
TKI levels removed from incubations (CYP3A4 [9]): more than 60%
Disappearance rate in microsomal incubations (CYP1A1 [10]; [17]): 0.2 nmoles of TKI degraded/(min×nmole of CYP)

CNC(=O)c1cc(Oc2ccc(NC(=O)Nc3ccc(Cl)c(C(F)(F)F)c3)cc2)ccn1 [Sorafenib, sorafenib]
Disappearance rate in microsomal incubations (CYP1B1 [3]): 0.0 nmoles of TKI degraded/(min×nmole of CYP)
TKI removal from HepG2 cell culture media (CYP1B1 [5]): very slowly by CYP1B1
Disappearance rate in microsomal incubations (CYP1A1 [10]; [17]): 0.4 nmoles of TKI degraded/(min×nmole of CYP)

CCN(CC)CCNC(=O)c1c(C)[nH]c(/C=C2\C(=O)Nc3ccc(F)cc32)c1C [Sunitinib, sunitinib]
Disappearance rate in microsomal incubations (CYP1B1 [3]): 0.1 nmoles of TKI degraded/(min×nmole of CYP)
TKI removal from HepG2 cell culture media (CYP1A1 [6]): equal rate for CYP1A1 and 2J2
Disappearance rate in microsomal incubations (CYP1A1 [10]): 0.6 nmoles of TKI degraded/(min×nmole of CYP)

CCNCCNC(=O)c1c(C)[nH]c(/C=C2\C(=O)Nc3ccc(F)cc32)c1C [Z-deethyl-sunitinib #2, Z-deethyl-sunitinib]
Relative Intrinsic Clearance (CYP1A1 [11]): 0.2 fold diff.
Km (CYP1A1 [11]): 6.7 µM
Relative Intrinsic Clearance (CYP1B1 [12]): 0.1 fold diff.

C#C[C@]1(O)CC[C@H]2[C@@H]3CCC4=Cc5oncc5C[C@]4(C)[C@H]3CC[C@@]21C [danazol]
CYP2J2 inhibition (CYP2J2 [14]): CYP2J2 inhibitors

Cc1nc(Nc2ncc(C(=O)Nc3c(C)cccc3Cl)s2)cc(N2CCNCC2)n1 [dehydroxyethyl-dasatinib]
Relative Intrinsic Clearance (CYP1A1 [11]): 0.5 fold diff.
Km (CYP1A1 [11]): 4.7 µM
Relative Intrinsic Clearance (CYP3A4 [15]; CYP3A4 (reference, set to 1.0), Vmax/Km for production of the labelled metabolite): 1.0 fold diff.
Km (CYP3A4 [15]): 71.4 µM
Relative Intrinsic Clearance (CYP2J2 [16]; Vmax/Km for production of the labelled metabolite, as fold difference of the intrinsic clearance of CYP3A4): 0.5 fold diff.
Km (CYP2J2 [16]): 3.9 µM
Relative Intrinsic Clearance (CYP1B1 [12]): 1.1 fold diff.
Km (CYP1B1 [12]): 2.2 µM

Fc1ccc(C(c2ccc(F)cc2)N2CCN(C/C=C/c3ccccc3)CC2)cc1 [flunarizine]
CYP2J2 inhibition (CYP2J2 [14]): CYP2J2 inhibitors

CCCc1nc2c(C)cc(-c3nc4ccccc4n3C)cc2n1Cc1ccc(-c2ccccc2C(=O)O)cc1 [telmisartan]
CYP2J2 inhibition (CYP2J2 [14]): CYP2J2 inhibitors

N-oxide-nilotinib [NO-nilotinib #1]
Km (CYP1A1 [11]): 3 µM
Km (CYP3A4 [15]): 27.6 µM
Km (CYP2J2 [16]): 0.8 µM
